Where a name gives a salt, the structure may show the parent alone.
Test system: Aedes aegypti mosquitoes, insecticide-susceptible Orlando strain
Assay type: in vivo
Settings: for 1 h Repellency EC50, μg/cm^2: (OR); for 1 h % Repellency, 100 μg/cm^2: screened at 100 μg/cm^2, strain not given; for vapor repellency / mortality, statement in words (Example 8): structure-activity analysis of Table 2
Method: The tubes as shown were held horizontally on the bench.
For assessing behavioral repellency (FIG. 1), Aedes aegypti mosquitoes were used from the insecticide-susceptible Orlando strain and the pyrethroid-resistant Puerto Rico strain. Sixteen female mosquitoes were transferred to a glass tube (12.5 cm long, 2.5 cm outer diameter) with the ends covered with netting. Each compound was dissolved in 1 mL of acetone and serial dilutions ranging from 30-0.01 μg/ml were made. Circular filter papers (5 cm^2) were saturated with 50 μL of each concentration and allowed 10 min for solvent evaporation. The filter papers were then placed in clear conical polypropylene caps and fixed to the end of the glass tubes. The netting prevented mosquito contact with the filter paper. The tubes were then aligned with a mark denoting the midline and the proportion of mosquitoes on the chemically treated side was scored for up to 60 min. At the end of the test, the tube was placed in a cage and the ability of the mosquitoes to fly out of the tube was assessed for 30 min. […] This post-test evaluated whether any non-responding mosquitoes (not repelled) resulted from intoxication or disorientation from the test chemical. For assessment of lethality, insects were held for 24 hr under constant exposure in glass tubes having treated filter papers.
Compounds were first screened at 100 μg/cm^2 for repellency and 24 h mortality.

C=CC(=O)Nc1ccccc1C(F)(F)F [GMR021]
1 h Repellency EC50, μg/cm^2: 32 μg/cm^2
1 h % Repellency, 100 μg/cm^2: 92%

CCCCCC(=O)N(C(=O)CCCCC)c1cccc(OC(F)(F)F)c1 [GMR165]
1 h % Repellency, 100 μg/cm^2: 62%

CCC(=O)Nc1ccccc1OC(F)(F)F [GMR170]
1 h Repellency EC50, μg/cm^2: 15 μg/cm^2
1 h % Repellency, 100 μg/cm^2: 94%

CCCC(=O)Nc1ccccc1OC(F)(F)F [GMR171]
1 h Repellency EC50, μg/cm^2: 29 μg/cm^2
1 h % Repellency, 100 μg/cm^2: 100%

O=C(NCC(F)(F)F)c1cc(F)c(F)c(F)c1 [GMR173]
1 h % Repellency, 100 μg/cm^2: 44%
vapor repellency / mortality, statement in words (Example 8): some repellency and mortality

CC1(C)[C@H](C=C(Cl)Cl)[C@H]1C(=O)Nc1cc(F)cc(F)c1 [GMR179]
1 h % Repellency, 100 μg/cm^2: 30%

O=C(Nc1ccccc1C(F)(F)F)C(F)(F)F [MTFI-1-4C]
1 h % Repellency, 100 μg/cm^2: −6%

O=C(CCl)Nc1cc(C(F)(F)F)cc(C(F)(F)F)c1 [MTFI-3-1F]
1 h % Repellency, 100 μg/cm^2: 88%

C=CCCCC(=O)Nc1ccccc1C(F)(F)F [MTFI-3-2E]
1 h % Repellency, 100 μg/cm^2: 76%

O=C(CCC1CCCCC1)Nc1cccc(C(F)(F)F)c1 [MTFI-3-3A]
1 h % Repellency, 100 μg/cm^2: 16%

CC(=O)Nc1ccc(C(F)(F)F)cc1 [MTFI-3-4A]
1 h % Repellency, 100 μg/cm^2: 8%

O=C(CCC1CCCCC1)Nc1ccc(C(F)(F)F)cc1 [MTFI-3-4B]
1 h % Repellency, 100 μg/cm^2: 8%

O=C(CCC1CCCCC1)Nc1c(Cl)cc(C(F)(F)F)cc1Cl [MTFI-3-5A]
1 h % Repellency, 100 μg/cm^2: 0%

O=C(Nc1cc(C(F)(F)F)cc(C(F)(F)F)c1)C(F)(F)C(F)(F)C(F)(F)F [MTFI-4-2D]
1 h % Repellency, 100 μg/cm^2: 12%

O=C(NCC(F)(F)F)Nc1c(Cl)cc(C(F)(F)F)cc1Cl [MTFI-4-FPL-A]
1 h % Repellency, 100 μg/cm^2: 0%
vapor repellency / mortality, statement in words (Example 8): reduced repellency

O=C(Nc1ccc(C(F)(F)F)cc1)c1cc(Cl)cc(Cl)c1 [MTFI-4-NA-1C]
1 h % Repellency, 100 μg/cm^2: 8%
vapor repellency / mortality, statement in words (Example 8): poor results

O=C(CCl)Nc1cccc(F)c1 [MTFI-5-1A]
1 h % Repellency, 100 μg/cm^2: 6%

COC(=O)c1ccccc1N(C)C(F)(C(F)(F)F)C(F)(F)F [MTFI-5-11A]
vapor repellency / mortality, statement in words (Example 8): moderate repellency in some instances

COC(=O)c1cc(F)c(F)cc1N [MTFI-5-12A]
1 h Repellency EC50, μg/cm^2: 23 μg/cm^2
1 h % Repellency, 100 μg/cm^2: 92%
vapor repellency / mortality, statement in words (Example 8): moderate repellency in some instances

COC(=O)c1cccc(C(F)(F)F)c1N [MTFI-5-12B]
vapor repellency / mortality, statement in words (Example 8): moderate repellency in some instances

COC(=O)c1cc(C)c(C(F)(F)F)cc1N [MTFI-5-12C]
1 h % Repellency, 100 μg/cm^2: 30%
vapor repellency / mortality, statement in words (Example 8): moderate repellency in some instances

COC(=O)c1cc(C(F)(F)F)ccc1N [MTFI-5-12D]
1 h % Repellency, 100 μg/cm^2: 84%
vapor repellency / mortality, statement in words (Example 8): moderate repellency in some instances

COC(=O)c1ccccc1C(F)(F)F [MTFI-5-13A]
1 h % Repellency, 100 μg/cm^2: 6%

CCOC(=O)c1ccccc1C(F)(F)F [MTFI-5-13B]
1 h % Repellency, 100 μg/cm^2: 12%

COC(=O)c1ccccc1O [MTFI-5-14A]
1 h % Repellency, 100 μg/cm^2: 70%
vapor repellency / mortality, statement in words (Example 8): moderate repellency and toxicity

CCOC(=O)c1ccccc1O [MTFI-5-14B]
1 h % Repellency, 100 μg/cm^2: 30%
vapor repellency / mortality, statement in words (Example 8): moderate repellency and toxicity

CCCCOC(=O)c1ccccc1O [MTFI-5-14C]
knockdown in 1 hr repellency test (XXkd = number of insects incapacitated out of 16 females) (in vivo): 8

O=C(CCl)Nc1cccc(O)c1 [MTFI-5-15A]
1 h % Repellency, 100 μg/cm^2: 36%

COC(=O)c1cccc(C(F)(F)F)c1N [MTFI-5-512B]
1 h % Repellency, 100 μg/cm^2: 42%

CC1(C)C(C=C(Cl)Cl)C1C(=O)O (stereo not drawn) [TFA, 1R-transfluthrin acid, reference compound]
repellency of TFA alone (alone): inactive alone

— patent publication US20230337677A1, “ARYL AND PYRIDYL AMIDE PESTICIDES AND COMPOSITIONS THEREOF” (University of Florida Research Foundation, Incorporated, priority 2019, published 2023)
